Our source for the MIC values is patent US9241947B2, “Boronic acid derivatives and therapeutic uses thereof” (priority 2013, dated 2016).

Experiment in all cases: Carbapenem potentiation against clinical isolate
In assay [1] the test system is EA1019 (SHV-5, VIM-1). The format is cell-based, Enterobacter aerogenes. The conditions noted are these: Klebsiella aerogenes; strain EA1019; read-out: Doripenem MIC Alone. The text has this: (§1) The results are present in Table 6.
(§2) The results are present in Table 7.

The subject of assay [2] is KP1074 (KPC-3, SHV-11, TEM). The format is cell-based. The conditions noted are these: Klebsiella pneumoniae; strain KP1074; read-out: Doripenem MIC Alone.
Excerpt: as §1, §2

Assay [3] has as its system KP1064 (KPC-2, SHV-11, TEM-1). Type of assay: cell-based. The settings on record: Klebsiella pneumoniae; strain KP1064; read-out: Doripenem MIC Alone.
Excerpt: as §1, §2

Assay [4] has as its system KP1084 (KPC-3, SHV-11, TEM-1). Type of assay: cell-based. The settings on record: Klebsiella pneumoniae; strain KP1084; read-out: Doripenem MIC Alone.
Excerpt: as §1, §2

The test system of assay [5] is KP1014 (VIM-1). The format is cell-based. The settings on record: Klebsiella pneumoniae; strain KP1014; read-out: Doripenem MIC Alone.
Excerpt: as §1, §2

Assay [6] relates to KP1081 (NDM-1, TEM-1, SHV-11, CMY-6, CTX-M-15). The format is cell-based. The settings on record: Klebsiella pneumoniae; strain KP1081; read-out: Doripenem MIC Alone.
Excerpt: as §1, §2

Assay [7] concerns EC1064 (NDM-1, CMY-6, CTX-M-15). The format is cell-based. The conditions noted are these: Escherichia coli; strain EC1064; read-out: Doripenem MIC Alone.
Excerpt: as §1, §2

Assay [8] relates to KP1004 (KPC-2, TEM-1, SHV-11). The format is cell-based. The conditions noted are these: Klebsiella pneumoniae, strain KP1004; read-out: Doripenem MIC Alone.
Excerpt: as §1, §2

For assay [9], the system named is KP1087 (KPC-2, CTX-M-15, SHV-11, TEM-1). The format is cell-based. The conditions noted are these: Klebsiella pneumoniae; strain KP1087; read-out: Doripenem MIC Alone.
Excerpt: as §1, §2

For assay [10], the system named is AB1144 (NDM-1). Type of assay: cell-based. The conditions noted are these: Acinetobacter baumannii, strain AB1144; read-out: Doripenem MIC Alone.
Excerpt: as §1, §2

Assay [11] deals with KP1086 (TEM, SHV, CTX-M-15, OXA-48). Type of assay: cell-based. The conditions noted are these: Klebsiella pneumoniae; strain KP1086; read-out: Doripenem MIC Alone.
Excerpt: as §1, §2

Assay [12] relates to KP1054 (VIM-1, SHV-11). Type of assay: cell-based. The conditions noted are these: Klebsiella pneumoniae; strain KP1054; read-out: Doripenem MIC Alone.
Excerpt: as §1, §2

Where only a bound is given, the exact number is not on record here.

One may read the MIC as the smallest concentration in the dilution series that meets the test's criterion for growth inhibition. As to `C[C@@H](O)[C@H]1C(=O)N2C(C(=O)O)=C(S[C@@H]3CN[C@H](CNS(N)(=O)=O)C3)[C@H](C)[C@H]12` [Doripenem], the MIC in assay [1], in [2], in [3], in assay [4], in assay [5] and in assay [6] was > 10 mg/L each time. For the same molecule, the MIC in assay [7] was > 10 mg/L; in assay [8] it was 1 to 10 mg/L; in assay [9], > 10 mg/L; in assay [10], > 10 mg/L; in [11] it was > 10 mg/L; in [12] it was > 10 mg/L.
